Patent US20260234135A1, “CRYSTALLINE FORMS OR SALTS OF A DEUTERATED COMPOUND” (ALEBUND PHARMACEUTICALS (HONG KONG) LIMITED, priority 2023, published 2026)
In brackets after ≈: the same amount, converted by molar mass. Where two headings read alike, the source gives them in different places.

Tests used:
[1] = Approximate solubility in single solvents at RT; type: physicochemical
Description: Approximately 2 mg of sample was added into a 3-mL glass vial. Corresponding solvents were added stepwise (50 μL→50 μL→100 μL→200 μL→600 μL→1000 μL) into the vials until the solids were dissolved visually or a total volume of 2 mL was reached. The ranges of approximate solubility were calculated according to the mass of sample, volume of solvent and observation. Result summarized in Table 3 was used to guide the solvent selection in polymorph screening.

[2] = Hygroscopicity evaluation by DVS at 25° C.; type: physicochemical
Description: DVS was measured via a SMS (Surface Measurement Systems) DVS Intrinsic. The relative humidity at 25° C. were calibrated against deliquescence point of LiCl, Mg(NO3)2 and KCl.

[3] = for HPLC Purity (area %), main peak RRT 1.00 / HPLC Reults of initial (%): listed as Free acid Form B
physchem = conditions: thermodynamic from solid
[4] = SGF, 37 °C, simulated gastric fluid
[5] = pH 4.5 (KAc) buffer, 37 °C, pH 4.5, aqueous buffer
[6] = pH 6.8 buffer (K2HPO3 + KH2PO3), 37 °C, pH 6.8, aqueous buffer
[7] = pH 8.0 buffer (K2HPO3 + KH2PO3), 37 °C, pH 8, aqueous buffer

For [2H]C([2H])(Cc1nc(-c2ccccc2)oc1C)Oc1ccc(C[C@H](OC)C(=O)O)c2sccc12 [AP-303 (818159-01-A)], the Solubility ([1]; 1,4-Dioxane) was “S > 46.0 mg/mL”, the Solubility ([1]; DMSO) was “S > 44.0 mg/mL” and the Solubility ([1]; H2O) was “S < 1.2 mg/mL”. The Solubility ([1]; THF) was “S > 42.0 mg/mL” and the Solubility ([1]; n-Heptane) was “S < 1.3 mg/mL”.
For [2H]C([2H])(Cc1nc(-c2ccccc2)oc1C)Oc1ccc(C[C@H](OC)C(=O)O)c2sccc12 [free acid Form B], the Hygroscopicity ([2]; DVS, 25° C.) was “non-hygroscopic”, the “Water uptake up to 80% RH” value ([2]; DVS, 25° C.) was 0.07% and the “Form change after DVS test” value ([2]; XRPD after DVS) was “No form change”. The “Area (%) peak 1, RRT 0.88” value ([3]; 40° C./75% RH, 2 weeks) was 0.20%, the “Area (%) peak 2, RRT 1.00 (main peak)” value ([3]; 40° C./75% RH, 2 weeks) was 99.50% and the “Area (%) peak 3, RRT 1.14” value ([3]; 40° C./75% RH, 2 weeks) was 0.11%. For the same compound, the “Area (%) peak 4, RRT 1.34” value ([3]; 40° C./75% RH, 2 weeks) was 0.20%, the “Area (%) peak 1, RRT 0.88” value ([3]; 40° C./75% RH, 4 weeks) was 0.23% and the “Area (%) peak 2, RRT 1.00 (main peak)” value ([3]; 40° C./75% RH, 4 weeks) was 99.47%. The “Area (%) peak 3, RRT 1.14” value ([3]; 40° C./75% RH, 4 weeks) was 0.11%, the “Area (%) peak 4, RRT 1.34” value ([3]; 40° C./75% RH, 4 weeks) was 0.19% and the “Area (%) peak 1, RRT 0.88” value ([3]; 40° C./75% RH, 8 weeks) was 0.20%. For the same compound, the “Area (%) peak 2, RRT 1.00 (main peak)” value ([3]; 40° C./75% RH, 8 weeks) was 99.52%, the “Area (%) peak 3, RRT 1.14” value ([3]; 40° C./75% RH, 8 weeks) was 0.09% and the “Area (%) peak 4, RRT 1.34” value ([3]; 40° C./75% RH, 8 weeks) was 0.19%. For the same compound, the “HPLC Purity (area %), main peak RRT 1.00” value ([3]; 40° C./75% RH/open, 2 weeks) was 99.50 area %, the “HPLC Purity (area %), main peak RRT 1.00” value ([3]; 40° C./75% RH/open, 4 weeks) was 99.47 area % and the “HPLC Reults of initial (%)” value ([3]; 40° C./75% RH/open, 4 weeks) was 100.00%. The “HPLC Purity (area %), main peak RRT 1.00” value ([3]; 40° C./75% RH/open, 8 weeks) was 99.52 area %, the “HPLC Reults of initial (%)” value ([3]; 40° C./75% RH/open, 8 weeks) was 100.05% and the “Area (%) peak 1, RRT 0.88” value ([3]; 60° C., 2 weeks) was 0.20%. For the same compound, the “Area (%) peak 2, RRT 1.00 (main peak)” value ([3]; 60° C., 2 weeks) was 99.49%, the “Area (%) peak 3, RRT 1.14” value ([3]; 60° C., 2 weeks) was 0.11% and the “Area (%) peak 4, RRT 1.34” value ([3]; 60° C., 2 weeks) was 0.20%. For the same compound, the “Area (%) peak 1, RRT 0.88” value ([3]; 60° C., 4 weeks) was 0.22%, the “Area (%) peak 2, RRT 1.00 (main peak)” value ([3]; 60° C., 4 weeks) was 99.47% and the “Area (%) peak 3, RRT 1.14” value ([3]; 60° C., 4 weeks) was 0.11%. The “Area (%) peak 4, RRT 1.34” value ([3]; 60° C., 4 weeks) was 0.20%, the “Area (%) peak 1, RRT 0.88” value ([3]; 60° C., 8 weeks) was 0.20% and the “Area (%) peak 2, RRT 1.00 (main peak)” value ([3]; 60° C., 8 weeks) was 99.51%. The “Area (%) peak 3, RRT 1.14” value ([3]; 60° C., 8 weeks) was 0.10%, the “Area (%) peak 4, RRT 1.34” value ([3]; 60° C., 8 weeks) was 0.20% and the “HPLC Purity (area %), main peak RRT 1.00” value ([3]; 60° C./close, 2 weeks) was 99.49 area %. For the same compound, the “HPLC Purity (area %), main peak RRT 1.00” value ([3]; 60° C./close, 4 weeks) was 99.47 area %, the “HPLC Reults of initial (%)” value ([3]; 60° C./close, 4 weeks) was 100.00% and the “HPLC Purity (area %), main peak RRT 1.00” value ([3]; 60° C./close, 8 weeks) was 99.51 area %. For the same compound, the “HPLC Reults of initial (%)” value ([3]; 60° C./close, 8 weeks) was 100.04%, the “Area (%) peak 1, RRT 0.88” value ([3]; Initial) was 0.23% and the “Area (%) peak 2, RRT 1.00 (main peak)” value ([3]; Initial) was 99.47%. For the same compound, the “Area (%) peak 3, RRT 1.14” value ([3]; Initial) was 0.10%, the “Area (%) peak 4, RRT 1.34” value ([3]; Initial) was 0.20% and the “HPLC Purity (area %), main peak RRT 1.00” value ([3]; Initial) was 99.47 area %. It also gave a solubility at 2 h (physchem; FaSSIF-V2, 37 °C, fassif) of 280 µg/mL (≈ 637 µM), a solubility at 24 h (physchem; FaSSIF-V2, 37 °C, fassif) of 290 µg/mL (≈ 660 µM) and a solubility at 2 h (physchem; FeSSIF-V2, 37 °C, fessif) of 630 µg/mL (≈ 1430 µM). The solubility at 24 h (physchem; FeSSIF-V2, 37 °C, fessif) was 650 µg/mL (≈ 1480 µM), the solubility at 2 h (physchem; [4]) was 11 µg/mL (≈ 25 µM) and the solubility at 24 h (physchem; [4]) was 9.6 µg/mL (≈ 21.8 µM). For the same compound, the solubility at 2 h (physchem; [5]) was 0.3 µg/mL (≈ 0.683 µM), the solubility at 24 h (physchem; [5]) was 0.4 µg/mL (≈ 0.91 µM) and the solubility at 2 h (physchem; [6]) was 150 µg/mL. The solubility at 24 h (physchem; [6]) was 170 µg/mL, the solubility at 2 h (physchem; [7]) was 1900 µg/mL and the solubility at 24 h (physchem; [7]) was 1900 µg/mL. For the same compound, the solubility at 2 h (physchem; water, 37 °C) was 36 µg/mL (≈ 81.9 µM).
